Consider 31 molecules from US20230348369A1 (Cytokinetics, Inc., priority 2020, published 2023).

The target in this experiment is human NAMPT (Homo sapiens, UniProt P43490). As to the kind of experiment: Human recombinant enzyme assay (NMN fluorescence biochemical assay, activation of NAMPT). An outline of the steps: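 NMN production is detected fluorometrically (Ex 355/Em 460 nm) 40 min after acetophenone, KOH and formic acid derivatization. Reactions ran 60 min at ambient temperature: 6 nM human NAMPT, nicotinamide 150 μM, PRPP 20 μM, ATP 2.5 mM, buffered at pH 7.2 with 50 mM HEPES plus DTT, CHAPS, NaCl and 100 mM MgCl2.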
human NAMPT, sequence (P43490 whole entry): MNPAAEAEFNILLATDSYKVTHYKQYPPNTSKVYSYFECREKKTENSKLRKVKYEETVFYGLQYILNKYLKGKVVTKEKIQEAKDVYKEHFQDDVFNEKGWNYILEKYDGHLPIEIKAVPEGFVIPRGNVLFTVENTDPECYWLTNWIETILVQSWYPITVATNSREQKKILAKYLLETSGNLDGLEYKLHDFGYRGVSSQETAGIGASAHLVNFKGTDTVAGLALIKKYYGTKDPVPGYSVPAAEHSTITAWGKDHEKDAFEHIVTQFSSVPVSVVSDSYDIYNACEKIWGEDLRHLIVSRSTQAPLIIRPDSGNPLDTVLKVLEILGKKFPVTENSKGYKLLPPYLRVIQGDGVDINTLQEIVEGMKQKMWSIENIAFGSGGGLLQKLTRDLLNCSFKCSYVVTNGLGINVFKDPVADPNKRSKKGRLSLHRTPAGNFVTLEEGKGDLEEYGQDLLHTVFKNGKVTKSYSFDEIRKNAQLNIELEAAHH

Setting [1] is: Table A, human recombinant NAMPT, NMN formation, 60 min.
The mark [2] stands for this setting: Table A, human recombinant NAMPT, NMN formation, 60 min, read-out: EC50 Human.

Read-outs that look alike come from different tables or passages of the source.

As to `COc1ccc(CNC(=O)NC2CC3(C2)CC(C(=O)NC2(c4ccccc4)CC2)C3)cc1` (centres unmarked) [Compound 43, 6-(3-(4-methoxybenzyl)ureido)-N-(1-phenylcyclopropyl)spiro[3.3]heptane-2-carboxamide], the “AC1.4 Human” value under setting [1] was found to be 4.9 µM. The half-maximal effective concentration (EC50) under setting [2] worked out at 46.4 µM.

Take `O=C(NCCCCC1CCN(C(=O)Cc2ccccc2)CC1)NCc1ccc(Cl)cc1` [Compound 291, 1-(4-chlorobenzyl)-3-(4-(1-(2-phenylacetyl)piperidin-4-yl)butyl)urea]: the “AC1.4 Human” value under setting [1] is 1.9 µM. In addition, the EC50 under setting [2] is 4.6 µM.

In the case of `COc1cccc(C(=O)NC2CC3(CC(NC(=O)NCc4ccc(Cl)cc4)C3)C2)c1` (centres unmarked) [Compound 194, N-(6-(3-(4-chlorobenzyl)ureido)spiro[3.3]heptan-2-yl)-3-methoxybenzamide], the “AC1.4 Human” value under setting [1] was 8.8 µM. In addition, the EC50 under setting [2] is 5.9 µM.

Regarding `CC(C)(C)OC(=O)N1CC2(CC(NC(=O)NCc3ccc(Cl)cc3)C2)C1` [Compound 197, tert-butyl 6-(3-(4-chlorobenzyl)ureido)-2-azaspiro[3.3]heptane-2-carboxylate], the “AC1.4 Human” value under setting [1] was found to be 3.7 µM. The EC50 under setting [2] was 13.5 µM.

`CN(C(=O)CCCCCNC(=O)NCc1ccc(Cl)cc1)c1ccncc1` [Compound 265, 6-(3-(4-chlorobenzyl)ureido)-N-methyl-N-(pyridin-4-yl)hexanamide]: under setting [1], the “AC1.4 Human” value came to 0.8 µM. Besides, under setting [2], the EC50 was 1.6 µM.

Turning to `COc1ccc(CNC(=O)NC2CC3(C2)CN(C(=O)c2cccc(N4CCCC4)c2)C3)cc1` [Compound 179, 1-(4-methoxybenzyl)-3-(2-(3-(pyrrolidin-1-yl)benzoyl)-2-azaspiro[3.3]heptan-6-yl)urea], the EC50 is 12.4 µM. Moreover, the “AC1.4 Human” value under setting [1] came to 0.8 µM.

With `Cc1cccc(C(=O)NCC2CC3(C2)CC(NC(=O)NCc2ccc(Cl)cc2)C3)n1` (centres unmarked) [Compound 245, N-((6-(3-(4-chlorobenzyl)ureido)spiro[3.3]heptan-2-yl)methyl)-6-methylpicolinamide], the EC50 was found to be 4.9 µM. For the same molecule, under setting [1], the “AC1.4 Human” value amounted to 3.1 µM.

As to `COc1ccc(CNC(=O)NC2CC3(C2)CC(C(=O)N[C@H](CO)c2ccccc2)C3)cc1` (stereo partly drawn) [Compound 46, (S)-N-(2-hydroxy-1-phenylethyl)-6-(3-(4-methoxybenzyl)ureido)spiro[3.3]heptane-2-carboxamide], the “AC1.4 Human” value under setting [1] stood at 6.8 µM. Besides, the EC50 under setting [2] worked out at 41.3 µM.

As for `COc1ccccc1S(=O)(=O)N1CC2(CC(NC(=O)NCc3ccc(Cl)cc3)C2)C1` [Compound 218, 1-(4-chlorobenzyl)-3-(2-((2-methoxyphenyl)sulfonyl)-2-azaspiro[3.3]heptan-6-yl)urea], under setting [1], the “AC1.4 Human” value stood at 13.2 µM. In addition, the EC50 under setting [2] was found to be 22.5 µM.

For `Cc1ccc(C(=O)N2CC3(CC(NC(=O)NCc4ccc(F)cc4)C3)C2)cc1` [Compound 207, 1-(4-fluorobenzyl)-3-(2-(4-methylbenzoyl)-2-azaspiro[3.3]heptan-6-yl)urea], the “AC1.4 Human” value under setting [1] is 13.7 µM. Besides, the EC50 under setting [2] was found to be 6.6 µM.

Consider `COc1ccc(CNC(=O)NC2CC3(C2)CC(C(=O)N2CCC[C@@H]2c2cccnc2)C3)cc1` (stereo partly drawn) [Compound 59, (R)-1-(4-methoxybenzyl)-3-(6-(2-(pyridin-3-yl)pyrrolidine-1-carbonyl)spiro[3.3]heptan-2-yl)urea], for which the “AC1.4 Human” value under setting [1] worked out at 11.2 µM. Besides, the 50% effective concentration (EC50) under setting [2] turned out to be 40.5 µM.

For the molecule `O=C(NCc1ccc(Cl)cc1)NC1CC2(C1)CC(Oc1cccnc1)C2` (centres unmarked) [Compound 343, 1-(4-chlorobenzyl)-3-(6-(pyridin-3-yloxy)spiro[3.3]heptan-2-yl)urea], the EC50 turned out to be 5.6 µM. The “AC1.4 Human” value under setting [1] turned out to be 3.0 µM.

Consider `CN(Cc1ccccc1)C(=O)CCCCCNC(=O)NCc1ccc(Cl)cc1` [Compound 269, N-benzyl-6-(3-(4-chlorobenzyl)ureido)-N-methylhexanamide], for which the “AC1.4 Human” value under setting [1] worked out at 0.7 µM. Besides, the EC50 under setting [2] was determined as 5.1 µM.

For the molecule `CC(C)(C)OC(=O)N1CC[C@]2(C1)C[C@H](NC(=O)NCc1ccc(Cl)cc1)C2` [Compound 152, tert-butyl (2s,4r)-2-(3-(4-chlorobenzyl)ureido)-6-azaspiro[3.4]octane-6-carboxylate], the “AC1.4 Human” value under setting [1] was found to be 7.9 µM. For the same molecule, under setting [2], the EC50 was determined as 38.3 µM.

As for `Cc1ccccc1NC(=O)CCCCCNC(=O)NCc1ccc(Cl)cc1` [Compound 262, 6-(3-(4-chlorobenzyl)ureido)-N-(o-tolyl)hexanamide], the “AC1.4 Human” value under setting [1] came to 0.6 µM. Also, the EC50 under setting [2] is 4.9 µM.

Turning to `COc1ccc(CNC(=O)NC2CC3(C2)CC(C(=O)N(C)[C@H](C)c2ccccc2F)C3)cc1` (stereo partly drawn) [Compound 53, (R)-N-(1-(2-fluorophenyl)ethyl)-6-(3-(4-methoxybenzyl)ureido)-N-methylspiro[3.3]heptane-2-carboxamide], the “AC1.4 Human” value under setting [1] was 0.3 µM. Also, the half-maximal effective concentration (EC50) under setting [2] was 8.5 µM.

For the molecule `COc1ccc(CNC(=O)NC2CC3(C2)CN(S(=O)(=O)Cc2ccccc2Cl)C3)cc1` [Compound 117, 1-(2-((2-chlorobenzyl)sulfonyl)-2-azaspiro[3.3]heptan-6-yl)-3-(4-methoxybenzyl)urea], the “AC1.4 Human” value under setting [1] was 3.2 µM. Also, the EC50 under setting [2] came to 33.9 µM.

For the molecule `COc1ccc(CNC(=O)NC2CC3(C2)CC(C(=O)N2CCN(Cc4cnn(C)c4)CC2)C3)cc1` (centres unmarked) [Compound 123, 1-(4-methoxybenzyl)-3-(6-(4-((1-methyl-1H-pyrazol-4-yl)methyl)piperazine-1-carbonyl)spiro[3.3]heptan-2-yl)urea], under setting [1], the “AC1.4 Human” value turned out to be 2.8 µM. In addition, the EC50 under setting [2] worked out at 51.5 µM.

Regarding `NC(=O)c1ccc(CNC(=O)NC2CC3(CC(NCc4ccccn4)C3)C2)cc1` (centres unmarked) [Compound 34, 4-((3-(6-((pyridin-2-ylmethyl)amino)spiro[3.3]heptan-2-yl)ureido)methyl)benzamide], the “AC1.4 Human” value under setting [1] turned out to be 12.1 µM. The EC50 under setting [2] was found to be 37.7 µM.

For the molecule `COc1ccc(CNC(=O)NC2CC3(C2)CN(C(=O)c2cccc(N4CCOCC4)c2)C3)cc1` [Compound 191, 1-(4-methoxybenzyl)-3-(2-(3-morpholinobenzoyl)-2-azaspiro[3.3]heptan-6-yl)urea], the “AC1.4 Human” value under setting [1] was found to be 1.3 µM. Also, the concentration for a half-maximal effect (EC50) under setting [2] was determined as 23.8 µM.

On to `COC(=O)C1CC2(CC(NC(=O)NCc3ccc(Cl)cc3)C2)C1` (centres unmarked) [Compound 168, methyl 6-(3-(4-chlorobenzyl)ureido)spiro[3.3]heptane-2-carboxylate], for which the “AC1.4 Human” value under setting [1] came out at 9.5 µM. In addition, the EC50 (read-out: EC50 Human, Table A, human recombinant NAMPT, NMN formation, 60 min) turned out to be 39.3 µM.

In the case of `COc1ccc(CNC(=O)NC2CC3(C2)CC(C(=O)N2CCCc4cc(C(F)(F)F)ccc42)C3)cc1` (centres unmarked) [Compound 104, 1-(4-methoxybenzyl)-3-(6-(6-(trifluoromethyl)-1,2,3,4-tetrahydroquinoline-1-carbonyl)spiro[3.3]heptan-2-yl)urea], under setting [1], the “AC1.4 Human” value was found to be 0.5 µM. Moreover, under setting [2], the EC50 turned out to be 10.7 µM.

For `Cc1ccc(C(C)(O)C2CC3(CC(NC(=O)NCc4ccc(Cl)cc4)C3)C2)cn1` (centres unmarked) [Compound 338, 1-(4-chlorobenzyl)-3-(6-(1-hydroxy-1-(6-methylpyridin-3-yl)ethyl)spiro[3.3]heptan-2-yl)urea], the “AC1.4 Human” value under setting [1] was found to be 6.4 µM. The EC50 under setting [2] was 10.3 µM.

Turning to `COc1ccc(CNC(=O)NC2CC3(C2)CC(C(=O)N2CCCc4cc(OC(F)F)ccc42)C3)cc1` (centres unmarked) [Compound 103, 1-(6-(6-(difluoromethoxy)-1,2,3,4-tetrahydroquinoline-1-carbonyl)spiro[3.3]heptan-2-yl)-3-(4-methoxybenzyl)urea], the “AC1.4 Human” value under setting [1] is 0.3 µM. The EC50 under setting [2] came to 7 µM.

`COc1ccc(CNC(=O)NC2CC3(C2)CC(C(=O)NCc2ccccn2)C3)cc1` (centres unmarked) [Compound 56, 6-(3-(4-methoxybenzyl)ureido)-N-(pyridin-2-ylmethyl)spiro[3.3]heptane-2-carboxamide]: the “AC1.4 Human” value under setting [1] came to 9.0 µM. Also, the EC50 under setting [2] came to 47.7 µM.

For the molecule `[2H]C([2H])(NC(=O)NCCCCC1CCN(C(=O)c2ccccc2)CC1)c1cnco1` [Compound 324, 1-(4-(1-benzoylpiperidin-4-yl)butyl)-3-(oxazol-5-ylmethyl-d2)urea], the “AC1.4 Human” value under setting [1] was 0.2 µM. Also, under setting [2], the EC50 was determined as 1.9 µM.

As for `O=C(NCc1ccc(Cl)cc1)NC1CC2(CC(CNC(=O)c3cn[nH]c3)C2)C1` (centres unmarked) [Compound 247, N-((6-(3-(4-chlorobenzyl)ureido)spiro[3.3]heptan-2-yl)methyl)-1H-pyrazole-4-carboxamide], under setting [1], the “AC1.4 Human” value amounted to 2.8 µM. For the same molecule, under setting [2], the concentration for a half-maximal effect (EC50) worked out at 7.9 µM.

On to `O=C1CC(C(=O)N2CCC(CCCCNC(=O)NCc3ccc(Cl)cc3)CC2)CN1` (centres unmarked) [Compound 303, 1-(4-chlorobenzyl)-3-(4-(1-(5-oxopyrrolidine-3-carbonyl)piperidin-4-yl)butyl)urea], for which, under setting [1], the “AC1.4 Human” value was determined as 2.6 µM. Moreover, the EC50 under setting [2] came out at 15.6 µM.

Turning to `COc1ccc(CNC(=O)NC2CC3(C2)CC(C(=O)NCC(C)(C)c2cccnc2)C3)cc1` (centres unmarked) [Compound 66, 6-(3-(4-methoxybenzyl)ureido)-N-(2-methyl-2-(pyridin-3-yl)propyl)spiro[3.3]heptane-2-carboxamide], the “AC1.4 Human” value under setting [1] is 3.3 µM. The EC50 under setting [2] is 37.8 µM.

Turning to `COc1ccc(C(=O)N2CC[C@]3(C2)C[C@@H](NC(=O)NCc2ccc(Cl)cc2)C3)cc1` [Compound 163, 1-(4-chlorobenzyl)-3-((2r,4s)-6-(4-methoxybenzoyl)-6-azaspiro[3.4]octan-2-yl)urea], under setting [1], the “AC1.4 Human” value came out at 12.4 µM. For the same molecule, under setting [2], the EC50 was 27.9 µM.

Take `CC(C)(O)CN1CCN(C(=O)CCCCCNC(=O)NCc2ccc(Cl)cc2)CC1` [Compound 261, 1-(4-chlorobenzyl)-3-(6-(4-(2-hydroxy-2-methylpropyl)piperazin-1-yl)-6-oxohexyl)urea]: under setting [1], the “AC1.4 Human” value is 2.8 µM. Also, the EC50 under setting [2] came out at 42.9 µM.

One may read the EC50 as the concentration at which the effect is half-maximal.
